In brackets after ≈: the same amount, converted by molar mass.
Experiments:
Assay in all cases: Bacterial growth minimal inhibitory concentration (microdilution, cation-adjusted Mueller-Hinton Broth)
Type in all cases: cell-based
E. coli ATCC25922 = details: quinolone-sensitive strain; for MIC: Escherichia coli, ATCC25922, read-out: MIC for E. coli ATCC25922
Procedure: (§1) Minimal Inhibitory Concentrations (MICs; mg/L) were determined in cation-adjusted Mueller-Hinton Broth by a microdilution method following the description given in “Methods for Dilution Antimicrobial Susceptibility Tests for Bacteria that Grow Aerobically”, Approved standard, 7th ed., a Clinical and Laboratory Standards Institute (CLSI) Document M7-A7, Wayne, Pa., USA (2006).
(§2) All Example compounds were tested against several Gram-positive and Gram-negative bacteria. […] K. pneumoniae A-651 is a multiply-resistant strain (in particular quinolone-resistant), while E. coli ATCC25922 and P. aeruginosa ATCC27853 are quinolone-sensitive strains.

P. aeruginosa ATCC27853 = details: for MIC: Pseudomonas aeruginosa, ATCC27853, quinolone-sensitive strain, read-out: MIC for P. aeruginosa ATCC27853
Procedure: as §1, §2

K. pneumoniae A-651 = details: multiply-resistant strain (in particular quinolone-resistant); for MIC: Klebsiella pneumoniae, A651, read-out: MIC for K. Pneumoniae A-651
Procedure: as §1, §2

Row | SMILES | MIC (E. coli ATCC25922) [µg/mL] | MIC (P. aeruginosa ATCC27853) [µg/mL] | MIC (K. pneumoniae A-651) [µg/mL] | MIC for E. coli ATCC25922 (E. coli ATCC25922) [µg/mL] | MIC for P. aeruginosa ATCC27853 (P. aeruginosa ATCC27853; quinolone-sensitive strain) [µg/mL] | MIC for K. Pneumoniae A-651 (K. pneumoniae A-651) [µg/mL]
1 | CC(C)Oc1ccc(-c2cc3n(c2)C(=O)N(CCC(C)(C(=O)NO)S(C)(=O)=O)C3)cc1F (racemic) [RE10, (RS)-4-(6-(3-fluoro-4-isopropoxyphenyl)-3-oxo-1H-pyrrolo[1,2-c]imidazol-2(3H)-yl)-N-hydroxy-2-methyl-2-(methylsulfonyl)butanamide] | 0.25 (≈ 0.535 µM) | 2 (≈ 4.28 µM) | 8 (≈ 17.1 µM) | – | – | –
2 | C[C@@](CCN1Cc2cc(C#CC#C[C@@]3(F)C[C@@H]3CO)cn2C1=O)(C(=O)NO)S(C)(=O)=O (relative stereo) [Example 66, (R)-4-(6-(((1R*,2R*)-1-fluoro-2-(hydroxymethyl)cyclopropyl)buta-1,3-diyn-1-yl)-3-oxo-1H-pyrrolo[1,2-c]imidazol-2(3H)-yl)-N-hydroxy-2-methyl-2-(methylsulfonyl)butanamide] | 0.125 (≈ 0.277 µM) | 1 (≈ 2.21 µM) | 0.5 (≈ 1.11 µM) | – | – | –
3 | C[C@@](CCN1Cc2cc(C#CC#C[C@@]3(F)C[C@@H]3CO)cn2C1=O)(C(=O)NO)S(C)(=O)=O (relative stereo) [Example 67, (R)-4-(6-(((1R*,2R*)-1-fluoro-2-(hydroxymethyl)cyclopropyl)buta-1,3-diyn-1-yl)-3-oxo-1H-pyrrolo[1,2-c]imidazol-2(3H)-yl)-N-hydroxy-2-methyl-2-(methylsulfonyl)butanamide] | – | – | – | 0.125 | 0.5 | 0.5
4 | C[C@@](CCN1Cc2cc(C#CC#C[C@H]3C[C@]3(F)CO)cn2C1=O)(C(=O)NO)S(C)(=O)=O (single isomer, unassigned) [Example 78] | 0.25 (≈ 0.554 µM) | 0.5 (≈ 1.11 µM) | 0.5 (≈ 1.11 µM) | – | – | –
5 | C[C@@](CCN1Cc2cc(C#CC#C[C@@H]3C[C@@]3(F)CO)cn2C1=O)(C(=O)NO)S(C)(=O)=O (single isomer, unassigned) [Example 79] | 0.25 (≈ 0.554 µM) | 0.5 (≈ 1.11 µM) | 0.25 (≈ 0.554 µM) | – | – | –
6 | COc1ccc(-c2cc3n(c2)C(=O)N(CC[C@](C)(C(=O)NO)S(C)(=O)=O)C3)c(F)c1 [Example 1, (R)-4-(6-(2-fluoro-4-methoxyphenyl)-3-oxo-1H-pyrrolo[1,2-c]imidazol-2(3H)-yl)-N-hydroxy-2-methyl-2-(methylsulfonyl)butanamide] | 0.125 (≈ 0.284 µM) | 1 (≈ 2.28 µM) | ≤ 0.063 | – | – | –
7 | C[C@@](CCN1Cc2cc(C#Cc3ccc(C4(O)COC4)cc3)cn2C1=O)(C(=O)NO)S(C)(=O)=O [Example 2, (R)-N-hydroxy-4-(6-((4-(3-hydroxyoxetan-3-yl)phenyl)ethynyl)-3-oxo-1H-pyrrolo[1,2-c]imidazol-2(3H)-yl)-2-methyl-2-(methylsulfonyl)butanamide] | 0.5 (≈ 1.03 µM) | 1 (≈ 2.05 µM) | 1 (≈ 2.05 µM) | – | – | –
8 | C[C@@](CCN1Cc2cc(C#Cc3ccc(CO)cc3)cn2C1=O)(C(=O)NO)S(C)(=O)=O [Example 3, (R)-N-hydroxy-4-(6-((4-(hydroxymethyl)phenyl)ethynyl)-3-oxo-1H-pyrrolo[1,2-c]imidazol-2(3H)-yl)-2-methyl-2-(methylsulfonyl)butanamide] | 0.125 (≈ 0.281 µM) | 2 (≈ 4.49 µM) | 0.5 (≈ 1.12 µM) | – | – | –
9 | C[C@@](CCN1Cc2cc(C#CC#CC3(O)COC3)cn2C1=O)(C(=O)NO)S(C)(=O)=O [Example 4, (R)-N-hydroxy-4-(6-((3-hydroxyoxetan-3-yl)buta-1,3-diyn-1-yl)-3-oxo-1H-pyrrolo[1,2-c]imidazol-2(3H)-yl)-2-methyl-2-(methylsulfonyl)butanamide] | 2 (≈ 4.59 µM) | 4 (≈ 9.19 µM) | 2 (≈ 4.59 µM) | – | – | –
10 | C[C@@](CCN1Cc2cc(C#Cc3ccc([C@@H]4C[C@H]4CO)cc3)cn2C1=O)(C(=O)NO)S(C)(=O)=O [Example 5, (R)-N-hydroxy-4-(6-((4-((1R,2R)-2-(hydroxymethyl)cyclopropyl)phenyl)ethynyl)-3-oxo-1H-pyrrolo[1,2-c]imidazol-2(3H)-yl)-2-methyl-2-(methylsulfonyl)butanamide] | ≤ 0.063 | 0.5 (≈ 1.03 µM) | 0.125 (≈ 0.257 µM) | – | – | –
11 | C[C@@](CCN1Cc2cc(C#Cc3ccc([C@H]4C[C@@H]4CO)cc3)cn2C1=O)(C(=O)NO)S(C)(=O)=O [Example 6, (R)-N-hydroxy-4-(6-((4-((1S,2S)-2-(hydroxymethyl)cyclopropyl)phenyl)ethynyl)-3-oxo-1H-pyrrolo[1,2-c]imidazol-2(3H)-yl)-2-methyl-2-(methylsulfonyl)butanamide] | 0.031 (≈ 0.0638 µM) | 0.5 (≈ 1.03 µM) | 0.125 (≈ 0.257 µM) | – | – | –
12 | C[C@@](CCN1Cc2cc(C#Cc3ccc(C4(CO)CC4)cc3)cn2C1=O)(C(=O)NO)S(C)(=O)=O [Example 7, (R)-N-hydroxy-4-(6-((4-(1-(hydroxymethyl)cyclopropyl)phenyl)ethynyl)-3-oxo-1H-pyrrolo[1,2-c]imidazol-2(3H)-yl)-2-methyl-2-(methylsulfonyl)butanamide] | 0.125 (≈ 0.257 µM) | 0.5 (≈ 1.03 µM) | 0.25 (≈ 0.515 µM) | – | – | –
13 | C[C@@](CCN1Cc2cc(C#Cc3ccc(C4(CN)CC4)cc3)cn2C1=O)(C(=O)NO)S(C)(=O)=O.O=CO [Example 8, (R)-4-(6-((4-(1-(aminomethyl)cyclopropyl)phenyl)ethynyl)-3-oxo-1H-pyrrolo[1,2-c]imidazol-2(3H)-yl)-N-hydroxy-2-methyl-2-(methylsulfonyl)butanamide formate] | 8 | 4 | 8 | – | – | –
14 | CC(C)(CO)c1ccc(C#Cc2cc3n(c2)C(=O)N(CC[C@](C)(C(=O)NO)S(C)(=O)=O)C3)cc1 [Example 9, (R)-N-hydroxy-4-(6-((4-(1-hydroxy-2-methylpropan-2-yl)phenyl)ethynyl)-3-oxo-1H-pyrrolo[1,2-c]imidazol-2(3H)-yl)-2-methyl-2-(methylsulfonyl)butanamide] | 0.25 (≈ 0.513 µM) | 0.5 (≈ 1.03 µM) | 0.5 (≈ 1.03 µM) | – | – | –
15 | CC(C)(O)c1ccc(C#Cc2cc3n(c2)C(=O)N(CC[C@](C)(C(=O)NO)S(C)(=O)=O)C3)cc1 [Example 10, (R)-N-hydroxy-4-(6-((4-(2-hydroxypropan-2-yl)phenyl)ethynyl)-3-oxo-1H-pyrrolo[1,2-c]imidazol-2(3H)-yl)-2-methyl-2-(methylsulfonyl)butanamide] | 0.25 (≈ 0.528 µM) | 0.5 (≈ 1.06 µM) | 0.25 (≈ 0.528 µM) | – | – | –
16 | C[C@@](CCN1Cc2cc(C#CC#C[C@H](O)CO)cn2C1=O)(C(=O)NO)S(C)(=O)=O [Example 11, (R)-4-(6-((S)-5,6-dihydroxyhexa-1,3-diyn-1-yl)-3-oxo-1H-pyrrolo[1,2-c]imidazol-2(3H)-yl)-N-hydroxy-2-methyl-2-(methylsulfonyl)butanamide] | 8 (≈ 18.9 µM) | 8 (≈ 18.9 µM) | 16 (≈ 37.8 µM) | – | – | –
17 | C[C@@](CCN1Cc2cc(C#CC#CC[C@@H]3C[C@@H]3CO)cn2C1=O)(C(=O)NO)S(C)(=O)=O [Example 12, (R)-N-hydroxy-4-(6-(5-((1S,2S)-2-(hydroxymethyl)cyclopropyl)penta-1,3-diyn-1-yl)-3-oxo-1H-pyrrolo[1,2-c]imidazol-2(3H)-yl)-2-methyl-2-(methylsulfonyl)butanamide] | 0.25 (≈ 0.559 µM) | 0.25 (≈ 0.559 µM) | 0.25 (≈ 0.559 µM) | – | – | –
18 | C[C@@H](O)c1ccc(C#Cc2cc3n(c2)C(=O)N(CC[C@](C)(C(=O)NO)S(C)(=O)=O)C3)cc1 [Example 13, (R)-N-hydroxy-4-(6-((4-((R)-1-hydroxyethyl)phenyl)ethynyl)-3-oxo-1H-pyrrolo[1,2-c]imidazol-2(3H)-yl)-2-methyl-2-(methylsulfonyl)butanamide] | 0.125 (≈ 0.272 µM) | 0.5 (≈ 1.09 µM) | 0.25 (≈ 0.544 µM) | – | – | –
